Where two headings read alike, the source gives them in different places.
How the values were obtained:
zebrafish larvae = format: in vivo
Procedure: (§1) The wild type zebrafish was used for this study.
Zebrafish behaviour was analyzed using a digital video tracking system (Viewpoint ZebraLab system). The system consists of a digital video camera connected to a computer system running the analysis software ZebraLab Man Rev 3.6B.
Moreover, 6-OHDA treatment also markedly altered the swimming behavior of zebrafish. […] Values in FIG. 9 represent the mean±SEM of 12 fish larvae per group of 3-time independent experiments. ###P<0.005 versus control group; *p<0.05, **p<0.01 and *** p<0.005 versus 6-OHDA group. […] The total swimming distance in 10 min travelled by the zebrafish larvae was decreased after exposure to 6-OHDA.

DA neurons in zebrafish = assay: Anti-TH whole-mount immunostaining, 6-OHDA-induced DA neuron loss; format: in vivo; conditions: 3 μM positive control, 250 μM 6-OHDA, 2 days
Procedure: as §1
Zebrafish at one dpf were exposed to 250 μM 6-OHDA in the presence or absence of 10 μM Schi A or 3 μM nomifensine (Nom, a DAT (dopamine transporter) inhibitor used as a positive control) for 2 days. Then zebrafish were collected for immunostaining to detect the DA neurons. Zebrafish were fixed in 4% paraformaldehyde in PBS for 30 min, rinsed, and stored at −20° C. in 100% MtOH. Whole-mount immunostaining was done by standard methods (Zhang, Cheang et al. 2011). Briefly, paraformaldehyde fixed samples were blocked (2% goat serum and 0.1% BSA in PBST,) for 1 h at room temperature. A mouse monoclonal anti-tyrosine hydroxylase antibody (1:200 diluted in blocking buffer) was used as the primary antibody and incubated overnight with the sample at 4° C. […] Semi-quantification TH^+ cells were assessed by an investigator blinded to drug treatment history of zebrafish using Image-Pro Plus 6.0 software (Media Cybernetics, Silver Spring, Md., USA). Results are expressed as percentage of area of TH^+ cells in untreated control group.
To further evaluate the neuroprotective effect of SchiA in vivo, the inventors examined the DA neurons in zebrafish by whole-mount immunofluorescent staining with an antibody against tyrosine hydroxylase (TH). […] Data is expressed as percentage of the control group. […]

SH-SY5Y cells [1] = assay: MTT cytotoxicity of the five lignans; format: cell-based
Procedure: (§2) Human neuroblastoma SH-SY5Y cells were purchased from the American Type Culture Collection (ATCC, Manassas, Va., USA) and cultured in a humidified 5% (v/v) CO2 atmosphere in 37° C. in Dulbecco's Modified Eagle Medium (DMEM) (Life technologies, NY, USA) supplemented with 10% FBS, 1% penicillin (100 U/mL) and streptomycin (100 μg/mL). All experiments were carried out 48 h after the cells were seeded.
(§3) Cell viability was determined by 3-(4,5-dimethyl-2-thiazolyl) 2,5-diphenyl-2H-tetrazolium bromide (MTT) assay (Sigma-Aldrich, USA). SH-SY5Y cells were seeded in 96-well plates (1×10^4 cells/well) for 48 h. SH-SY5Y cells were pre-treated with different concentrations of the five lignans (i.e. Schizandrin A, Schizandrin B, SC, Schizandrol A and SchiA) for 12 h and the cell viability was checked by MTT assay. Otherwise, SH-SY5Y cells were pre-treated with different concentrations of the five lignans for 12 h and then exposed to 400 μM 6-OHDA for 4 h. Cells were incubated at 37° C. for 4 h in 0.5 mg/mL MTT solution (prepared in serum free DMEM medium). The medium was then removed, and 100 μL of DMSO was added to each well to dissolve the violet-formazan crystals. The absorbance at 570 nm with 655 nm as a reference wavelength was measured by a multi-label counter (Wallac VICTOR3TMV, Perkin Elmer, Netherlands). Cell viability was expressed as a percentage of the value of the cells without 6-OHDA treatment. The LC50 and EC50 were calculated by GraphPad Prism V5.0 (GraphPad Software, Inc., San Diego, Calif.).
To evaluate the cytotoxicity of five selected lignans of S. chinensis, SH-SY5Y cells were treated with various concentrations of the tested compounds for 12 h and the cell viability was measured using the MTT assay.
(§4) To evaluate the cytotoxicity of five selected lignans of S. chinensis, SH-SY5Y cells were treated with various concentrations of the tested compounds for 12 h and the cell viability was measured using the MTT assay. […] To further study the neuroprotective activities of the five lignans in vitro, cells were treated with various concentrations of the tested compounds for 12 h before exposed to MPP^+. […] Values represent mean±S.D. ###P<0.005 versus control group; *p<0.05, **p<0.01 and *** p<0.005 versus MPP group. […] The therapeutic index of SchiA and SC were 14.9 and 8.8, respectively.

SH-SY5Y cells [2] = assay: MTT neuroprotection against MPP+-induced cell damage; format: cell-based; conditions: for protection against MPP+-induced cell damage (cell viability): various concentrations 12 h before MPP+
Procedure: as §2
In another study, SH-SY5Y cells were seeded in 96-well plates (1×10^4 cells/well) for 48 h. SH-SY5Y cells were pre-treated with different concentrations of the five lignans for 12 h and the cell viability was checked by MTT assay. SH-SY5Y cells were pre-treated with different concentrations of the five lignans for 12 h and then exposed to 2 mM MPP or vehicle for 36 h. Cells were incubated at 37° C. for 4 h in 0.5 mg/mL MTT solution (prepared in serum free DMEM medium). The medium was then discarded and 100 μL of DMSO was added to each well to dissolve the violet-formazan crystals. The absorbance at 570 nm with 655 nm as a reference wavelength was measured by a multi-label counter (Wallac VICTOR3TMV, Perkin Elmer, Netherlands). Cell viability was expressed as a percentage of the value of the cells without MPP treatment. The LC50 and EC50 were calculated by GraphPad Prism V5.0 (GraphPad Software, Inc., San Diego, Calif.).
as §4
The inventors also investigated the contribution of the PI3K/Akt pathway in the neuroprotective effects of SchiA. The inventors measured phosphorylation-Akt (p-Akt) levels after pre-treated with 60 μM SchiA for 12 h and then exposed to 2 mM MPP for another 36 h. […] And MPP^+-induced down-regulation of Akt expressions was inhibited by SchiA treatment. […] To further validate whether the activation of PI3K/Akt signaling pathway, the inventors determined the blocking effect of PI3K/Akt inhibitor such as AKT inhibitor IV on the in vitro neuroprotective effect of SchiA. SH-SY5Y cells were pre-incubated with Akt inhibitor IV (2 μM) for 1 h and then treated with SchiA for 12 h. Drug-treated cells were further treated with 2 mM MPP for another 36 h, MTT assay was used to determinate cell viability.

SH-SY5Y cells [3] = assay: MTT neuroprotection against 6-OHDA-induced cytotoxicity; format: cell-based, Human; conditions: for protection against 6-OHDA-induced damage (cell viability): 3, 6, 12, 25, 50 and 100 μM for 12 h before 400 μM 6-OHDA 4 h
Procedure: as §2, §3
To further study the neuroprotective activities of the five lignans against 6-OHDA-induced cytotoxicity, cells were treated with various concentrations (3, 6, 12, 25, 50 and 100 μM) of the tested compounds for 12 h before exposed to 400 μM 6-OHDA for 4 h.

[4] = test system: TH-positive neurons in the SNpc; format: in vivo, C57BL/6 mice; conditions: 10 mg/kg/day i.g. positive control, then MPTP
Procedure: Male C57BL/6 mice (20±2 g body weight, 6-8 weeks of age) were purchased from the Laboratory Animal Center of Guangdong Province and were fed six animals per cage, under a 12 h light/dark cycle with ad libitum access to food and water. Mice were handled daily and allowed 3 days to acclimate before each treatment. Six groups of mice (n=7/group, total 42 mice) were assigned for the neuroprotective study in vivo. SchiA at different concentrations (30, 100 or 300 mg/kg/day), positive control drug (Selegiline, 10 mg/kg/day) or vehicle (Tween-80/ml propylene glycol/alcohol/5% PVA, 1:1:1:17, v/v/v/v) were administered by intragastric gavage (i.g.) daily for 14 days. Then mice were injected by intraperitoneal (i.p.) with 30 mg/kg MPTP hydrochloride (Sigma-Aldrich) or physiological saline daily on days 15-19 (total 5 days). In order to allow for the full conversion of MPTP to its active metabolite MPP^+, a further 3 days of resting period followed (Levites, Weinreb et al. 2001). All animal experiments were conducted according to the ethical guidelines for animal experiment of Jinan University. The experimental protocols were approved by the Ethics Committee for Animal Experiments of Jinan University (permit number 20110810).
Three days after MPTP treatment, animals were anesthetized by i.p. administration of […] chloral hydrate (10% (w/v) dissolved in distilled water) and perfused intracardially with 100 mL PBS (0.1 mmol/L, pH 7.4) followed by 150 mL 4% paraformaldehyde (PFA) in PBS. After intracardial perfusion, brains were collected and post-fixed in 4% PFA for another 24 h at 4° C., embedded in paraffin, and cut into 6 μm coronal sections encompassing the entire SNpc. As the decrease of TH-positive neurons in response to MPTP treatment is the most prominent at medial levels of the SNpc (Hayley, Crocker et al. 2004), the inventors selected the sections from the area encompassed between −3.08 and −3.20 from bregma to perform immunohistochemisty. Immunohistochemistry of brain tissues was performed as previously described (He, Yamauchi et al. 2008; Yokoyama, Takagi et al. 2008) with minor modifications. Sections were deparaffinized in xylene and rehydrated in a graded ethanol series. […] Non-specific protein binding was blocked with 10% bovine serum in PBS (0.01 M, pH 7.4). Between each treatment, the slides were washed at least three times with deionized water for 5 minutes. […] The results were analyzed by counting the numbers of TH-positive cells at ×10 magnifications on a stereomicroscope (BX51, Olympus Corp. Japan). TH-positive cells in 6 position-matched sections of each mouse were counted manually by operator who was blinded to the drug treatment. […]

| Compound | protection against MPP+-induced cell damage (cell viability) (SH-SY5Y cells [2]) | protection against 6-OHDA-induced damage (cell viability) (SH-SY5Y cells [3]) | CC50 (SH-SY5Y cells [1]) [µM] | other results |
| --- | --- | --- | --- | --- |
| N[C@@H](Cc1ccc(O)c(O)c1)C(=O)O [L-dopa] | – | – | – | deficit of locomotor activity of 6-OHDA-treated zebrafish (zebrafish larvae; 150 μM positive control with 6-OHDA): rescued the deficit of locomotor activity of 6-OHDA-treated zebrafish to normal |
| CN1Cc2c(N)cccc2C(c2ccccc2)C1 (stereo not shown) [Nomifensine, nomifensine, reference compound] | – | – | – | deficit of locomotor activity of 6-OHDA-treated zebrafish (zebrafish larvae; 3 μM positive control with 6-OHDA): rescued the deficit of locomotor activity of 6-OHDA-treated zebrafish to normal; 6-OHDA-induced dopaminergic neuron loss (area of TH+ cells) (DA neurons in zebrafish): considerable protection |
| COc1c2c(cc3c1-c1c(cc4c(c1OC)OCO4)C[C@H](C)[C@H](C)C3)OCO2 [SC, Schizandrin C] | protect against MPP^+-induced cell damage in a dose-dependent manner | protected SH-SY5Y cells against 6-OHDA-induced damage in a dose-dependent manner | – | CC50 (SH-SY5Y cells [1]; treated 12 h, MTT, read-out: LC50 (the source's name)): 135 µM; EC50 (SH-SY5Y cells [2]; pre-treated 12 h, then 2 mM MPP+ 36 h): 15.3 µM; EC50 (SH-SY5Y cells [3]; pre-treated 12 h, then 400 μM 6-OHDA 4 h): 15.3 µM |
| COc1cc2c(c(OC)c1OC)-c1c(cc(OC)c(OC)c1OC)C[C@H](C)[C@H](C)C2 [Schizandrin A, reference compound] | did not show protective effects | did not show protective effects | 233 | – |
| COc1cc2c(c(OC)c1OC)-c1c(cc3c(c1OC)OCO3)CC(C)C(C)C2 (stereo not shown) [Schizandrin B, reference compound] | did not show protective effects | did not show protective effects | 189 | – |
| COc1cc2c(c(OC)c1OC)-c1c(cc(OC)c(OC)c1OC)C[C@](C)(O)[C@@H](C)C2 [Schizandrol A, reference compound] | did not show protective effects | did not show protective effects | 155 | – |
| C#CCN(C)[C@H](C)Cc1ccccc1 [selegiline, reference compound] | – | – | – | TH-positive neurons in SNpc [4]: 80±15 cells/section |
| AKT inhibitor IV [reference compound] | – | – | – | effect on the protective effect of SchiA on MPP+-induced cytotoxicity (SH-SY5Y cells [2]; 2 μM 1 h pre-incubation, then SchiA 12 h, 2 mM MPP+ 36 h, MTT): clearly abrogate the protective effect of SchiA |

Reference: patent US20150366839A1, “Schisantherin A for the treatment of neurodegenerative diseases” (priority 2014, published 2015)
